Key:
BV-2 [1] = test: Antineuroinflammatory activity in mouse BV2 cells assessed as inhibition of LPS-induced NO production after 24 hrs in presence of LPS by Griess reaction based assay; type: functional, cell-based; details: BV-2, 24 h
BV-2 [2] = test: Cytotoxicity against mouse BV2 cells assessed as reduction in cell viability at 1 to 100 uM after 24 hrs in presence of LPS by MTT assay; type: cell-based; details: bv-2, 24 h

`O=c1c(-c2ccc(O)c(O)c2)coc2cc(O)ccc12` was tested, and the IC50 (BV-2 [1]) was > 100 µM.

In the case of `CC[C@H](CC[C@@H](C)[C@H]1CC[C@H]2[C@@H]3C(=O)C=C4C[C@@H](O)CC[C@]4(C)[C@H]3CC[C@]12C)C(C)C`, the IC50 (BV-2 [1]) is reported as > 100 µM.

In the case of `COc1cc([C@H]2OC[C@H]3[C@@H]2CO[C@@H]3c2ccc(O)c(OC)c2)ccc1O`, the IC50 (BV-2 [1]) is reported as 76.2 µM and the Activity (BV-2 [2]) is reported as “Non-Toxic”.

For `COc1ccc(-c2coc3c(O)c(O)ccc3c2=O)cc1O`, the IC50 (BV-2 [1]) was 6.87 µM and the Activity (BV-2 [2]) was “Non-Toxic”.

For `COc1cc([C@@H]2OC[C@@H]3[C@H]2CO[C@H]3c2cc(OC)c(O)c(OC)c2)cc(OC)c1O`, the IC50 (BV-2 [1]) was > 100 µM.

With `COc1cc([C@H]2OC[C@@H]3[C@H]2CO[C@@H]3c2cc(OC)c(O)c(OC)c2)ccc1O` the IC50 (BV-2 [1]) was > 100 µM.

With `O=C1CC(c2cc(O)cc(O)c2)Oc2cc(O[C@@H]3O[C@H](CO)[C@@H](O)[C@H](O)[C@H]3O)cc(O)c21` (some centres undefined) the IC50 (BV-2 [1]) was > 100 µM.

With `Oc1cc(O)c2c(c1)C1C(c3cc(O)cc(O)c3[C@H]1c1ccc(O)c(O)c1)[C@@H]2c1ccc(O)c(O)c1` (some centres undefined) the IC50 (BV-2 [1]) was > 100 µM.

`COc1cc(O)c(-c2cc3ccc(O)cc3oc2=O)cc1OC` was tested, and the IC50 (BV-2 [1]) was 1.01 µM and the Activity (BV-2 [2]) was “Non-Toxic”.

In the case of `CCCCCCCCCCCCCCCCCCCCCCCCOC(=O)/C=C/c1ccc(O)c(OC)c1`, the IC50 (BV-2 [1]) is reported as > 100 µM.

`COc1cc([C@H]2OC[C@H]3[C@@H]2CO[C@H]3c2cc(OC)c(O)c(OC)c2)cc(OC)c1O` was tested, and the IC50 (BV-2 [1]) was > 100 µM.

In the case of `O=C(C[C@@H](O)c1ccc(O)c(O)c1)c1ccc(O)cc1O`, the IC50 (BV-2 [1]) is reported as 72.6 µM and the Activity (BV-2 [2]) is reported as “Non-Toxic”.

`COc1ccc2c(c1)O[C@H](c1ccc(O)c(O)c1)CC2=O` was tested, and the IC50 (BV-2 [1]) was > 100 µM.

In the case of `C[N+](C)(C)C(Cc1c[nH]c2ccccc12)C(=O)[O-]` (centres undefined), the IC50 (BV-2 [1]) is reported as > 100 µM.

For `CCCCCCCCCCCCCCCCCCOC(=O)/C=C/c1ccc(O)c(O)c1`, the IC50 (BV-2 [1]) was > 100 µM.

In the case of `O=C1c2ccc(O)cc2O[C@@H](c2ccc(O)c(O)c2)[C@@H]1O`, the IC50 (BV-2 [1]) is reported as > 100 µM.

With `COc1ccc(-c2coc3cc(O)ccc3c2=O)cc1O` [CALYCOSIN] the IC50 (BV-2 [1]) was 39.6 µM and the Activity (BV-2 [2]) was “Non-Toxic”.

For `O=C(O)/C=C/c1ccccc1` [CINNAMIC ACID], the IC50 (BV-2 [1]) was > 100 µM.

`O=C(O)/C=C/c1ccc(O)cc1` [COUMARIC ACID] was tested, and the IC50 (BV-2 [1]) was > 100 µM.

In the case of `O=c1c(O)c(-c2ccc(O)c(O)c2)oc2cc(O)ccc12` [FISETIN], the IC50 (BV-2 [1]) is reported as 73 µM and the Activity (BV-2 [2]) is reported as “Non-Toxic”.

With `COc1ccc(-c2coc3cc(O)ccc3c2=O)cc1` [FORMONONETIN] the IC50 (BV-2 [1]) was 13.2 µM and the Activity (BV-2 [2]) was “Non-Toxic”.

`CCCCCCCCCCCCCCCCCCCCCCCCCC(=O)O` [HEXACOSANOIC ACID] was tested, and the IC50 (BV-2 [1]) was > 100 µM.

With `O=C(/C=C/c1ccc(O)cc1)c1ccc(O)cc1O` [ISOLIQUIRITIGENIN] the IC50 (BV-2 [1]) was > 100 µM.

In the case of `COc1cc([C@H]2OC[C@H]3[C@@H]2CO[C@@H]3c2cc(OC)c(O[C@@H]3O[C@H](CO)[C@@H](O)[C@H](O)[C@H]3O)c(OC)c2)cc(OC)c1O[C@@H]1O[C@H](CO)[C@@H](O)[C@H](O)[C@H]1O` [LIRIODENDRIN], the IC50 (BV-2 [1]) is reported as > 100 µM.

With `C=C(C)[C@@H]1CC[C@]2(C)CC[C@]3(C)[C@H](CC[C@@H]4[C@@]5(C)CC[C@H](O)C(C)(C)[C@@H]5CC[C@]43C)[C@@H]12` [LUPEOL] the IC50 (BV-2 [1]) was > 100 µM.

Compound `CN(C)c1ccc(O)c2c1C[C@H]1C[C@H]3[C@H](N(C)C)C(O)=C(C(N)=O)C(=O)[C@@]3(O)C(O)=C1C2=O` [MINOCYCLINE] has an IC50 (BV-2 [1]) of 9.07 µM.

For `O=C(O)/C=C/c1ccccc1O` [O-COUMARIC ACID], the IC50 (BV-2 [1]) was > 100 µM.

In the case of `COc1ccc(-c2coc3cc(O)c(OC)cc3c2=O)cc1O` [ODORATIN], the IC50 (BV-2 [1]) is reported as 18.5 µM and the Activity (BV-2 [2]) is reported as “Non-Toxic”.

In the case of `O=C(O)c1ccc(O)cc1` [PARABEN], the IC50 (BV-2 [1]) is reported as > 100 µM.

In the case of `Oc1cc(O)cc(/C=C/c2ccc(O)c(O)c2)c1` [PICEATANNOL], the IC50 (BV-2 [1]) is reported as 80.5 µM and the Activity (BV-2 [2]) is reported as “Non-Toxic”.

For `COc1ccc(-c2coc3cc(O)cc(O)c3c2=O)cc1O` [PRATENSEIN], the IC50 (BV-2 [1]) was > 100 µM.

In the case of `O=Cc1ccc(O)c(O)c1` [PROTOCATECHUALDEHYDE], the IC50 (BV-2 [1]) is reported as > 100 µM.

In the case of `O=C(O)c1ccc(O)c(O)c1` [PROTOCATECHUIC ACID], the IC50 (BV-2 [1]) is reported as > 100 µM.

With `Oc1ccc(/C=C/c2cc(O)cc(O)c2)cc1` [RESVERATROL] the IC50 (BV-2 [1]) was 18.7 µM and the Activity (BV-2 [2]) was “Non-Toxic”.

From ChEMBL document CHEMBL4043221, “Natural neuro-inflammatory inhibitors from Caragana turfanensis” (Bioorg Med Chem Lett, 2017)
